# According to patent US20190203253A1, “METHODS OF IDENTIFYING AND TREATING CANCER PATIENTS WITH AN EPHB6 DEFICIENCY” (University of Saskatchewan, priority 2016, published 2019):
# Experiments:
# [1] = system: co-cultured MDA-B6 and MDA-pc3 cells; experiment: Drug sensitivity assay with fluorescent co-cultured cells (flow cytometry), KX2-391; format: cell-based, human; settings: GFP/RFP-labelled MDA-B6 and MDA-pc3 co-seeded in equal numbers, 25 nM, 72 h (FIGS. 4D, 4E)
# Protocol: FIG. 4. SL interaction between EPHB6 and SRC. A. MDA-pc3 and MDA-B6 cells were cultured in 96-well plates with the indicated concentrations of SU6656 or matching volumes of DMSO for 72 h. Cells were stained with resazurin and fluorescence was measured using a SpectraMax M5 plate reader to determine cell suppression. Five wells were analyzed per condition. […] B. MDA-pc3 and MDA-B6 cells were cultured in 96-well plates with the indicated concentrations of KX2-391 or matching volumes of DMSO for 72 h. Cells were stained with resazurin and fluorescence was measured using a SpectraMax M5 plate reader to determine cell suppression. Five wells were analyzed per condition. […] C. MDA-B6 and MDA-pc3 cells were transduced with lentivirus encoding pLD-GFP-Puro or pLD-RFP-Puro as indicated. Cells were selected with 2 μg/mL puromycin for 48 h, cultured in monolayer, and imaged by confocal microscopy at 100× magnification. […] Cells were collected and analyzed by flow cytometry and the FlowJo software. […] Cells were collected and analyzed by flow cytometry and the FlowJo software. […]
# For color assays, MDA-B6-GFP and MDA-pc3-RFP, or MDA-B6-RFP and MDA-pc3-GFP cells were co-seeded in equal numbers in 12-well plates at indicated cell densities. […] Treated cells were collected and quantitated by flow cytometry. Results were analyzed using the FlowJo software (FLOWJO LLC, Ashland, Oreg., USA).
# [2] = system: MDA-pc3 and MDA-B6 cells (MDA-MB-231); experiment: Drug sensitivity assay (resazurin), SRC inhibitors, MDA-MB-231-derived cells; format: cell-based, human; settings: MDA-pc3 vs MDA-B6, increasing concentrations, 72 h, resazurin (FIG. 4A, 4B)
# Protocol: FIG. 4. […] C. […] All experiments were performed at least three times.
# [3] = system: CD34-stained blood vessels in MDA-B6 and MDA-pc3 tumors; experiment: Anti-CD34 immunohistochemistry of xenograft tumors (blood vessel density); format: in vivo, NOD-SCID mice; settings: KX2-391-treated MDA-B6 and MDA-pc3 tumors (FIG. 7B)
# Protocol: FIG. 7. Analysis of the SL interaction between EPHB6 and SRC in TNBC cells and murine xenografts. A. MDA-pc3 and MDA-B6 cells were injected into the mammary fat pad region of 4-6 weeks old NOD-SCID mice (1×10^6 cells per mouse). Mice with detectable tumors were treated twice per day with 5 mg/kg KX2-391 in DMSO/water solvent or solvent alone by oral feeding (at least 6 animals per each experimental condition). Tumor size was measured every 3 days and tumor volume was calculated with the equation: A/2*B^2, where A was long and B was short diameter of the tumor. The reduction in tumor growth in KX2-391-treated mice is presented as a percentage relative to matching solvent controls. The graph summarizes two independent experiments. Day 0 indicates the beginning of treatment with KX2-391 or matching solvent control. […] Four representative fields (at 3, 6, 9, and 12 o'clock) per each stained tumor section (one for each extracted tumor) were imaged at 100× magnification and the blood vessel density per each field was analyzed with the Image-Pro Premier software. […]
# For the immunohistochemical staining, tumors were dissected and fixed in 10% neutral- buffered formalin for 24-48 h. […] In each stained tumor section, 12, 3, 6 and 9 o'clock fields were imaged at 100× magnification and the density of stained blood vessels per field was quantified using the Image-Pro Premier software.
structure (smiles),measurement,setting,value
O=C(Cc1ccc(-c2ccc(OCCN3CCOCC3)cc2)cn1)NCc1ccccc1 [KX2-391],cell suppression in co-culture monitored by flow cytometry,[1],EPHB6-deficient cells are much less resistant to SRC inhibition
same,"cell suppression relative to DMSO control, EPHB6-deficient vs EPHB6-expressing cells",[2],significantly stronger suppression of EPHB6-deficent cells
same,neovascularization (CD34 staining) of treated EPHB6-positive vs EPHB6-negative tumors,[3],has not shown any differences in neovascularization
